From patent publication US5980913A, “Peptides having immunomodulatory activity” (Biochem Pharma, Inc., priority 1994, dated 1999)
Where a SMILES comes first, the peptide text is derived from it.

How the values were obtained:
[1] = tested on: spleen cell subsets (cell surface antigens); test: In vivo/ex vivo immunophenotyping in the spleen, mice treated 4 consecutive days; design: species or system C57BL/6 mice
Method: C57BL.backslash.6 mice are treated with 0, 50, 100, 200, and 300 mg/kg of drug (in saline) for 4 consecutive days. Blood is taken by cardiac puncture on day 5, and the lymphocytes are isolated from spleen in the following manner:
The spleen is aseptically removed and mashed by pressing against a steel strainer with a rubber plunger. The cell suspension is separated from the clumps by letting them settle at the bottom of the tube. The cell suspension is then separated on a Lymphocyte M layer and the interface is recovered and resuspended in media.
1. Immunophenotyping (blood and spleen)
Cell immunophenotyping is performed on blood and spleen. The following cell surface antigens are analyzed:
CD4 (T helper/inducer, binds class II-restricted T cells);
CD8 (cytotoxic T cells, CTL adhesion);
MAC-1 (monocyte/macrophage);
NK (natural killer cells);
CD45 (all leukocytes, protein tyrosine phosphatase).

[2] = tested on: C57BL/6 lymphocytes with irradiated DBA/2 cells; test: Mixed lymphocyte reaction (MLR), 3H thymidine uptake; format: cell-based, mice; conditions: concentration not given; 0 not defined
Excerpt: 1. Cytotoxic T Lymphocytes (CTL) Mixed Lymphocyte Reaction (MLR) and Mitogenic Response Assays
The protocols used are described in Hudson L., Haay F., Pratical immunology, 3rd edition, Blackwell, Scientific publications, Oxford 1989, p. 158-162, and p.447.
Lymphocytes were isolated from C57BL/6 mice and DBA/2 mice in accordance to techniques well known in the art. Cell concentration was adjusted to 10×10^6 cell/ml for each assay. The cells isolated from DBA/2 mice were irradiated with 3000 Rads.
In a 6 well plate, each well was set up with:
The cells were incubated for five days at 37° C. in 5% CO2, after which CTL and MLR assays were performed.
b) Mixed Lymphocyte Reaction (MLR)
Mixed lymphocyte reaction is an in vitro counterpart of the allograft rejection. Briefly, lymphocyte activation (mitotic response) is obtained when cells from two inbred strains or from two outbred individuals of any species are mixed in in vitro culture. To have a unidirectional response, the proliferation of either cell type may be blocked with X-ray irradiation or mitomycin C treatment. After 4 days incubation, ^3 H thymidine uptake and cytotoxicity assays (CTL) were performed. The cells were then resuspended and 100 μl of cell suspension was deposited in each well of a 96 well plate. 1 μCi of tritiated thymidine was added for 6 hours. After incubation, the cells were then harvested and counted using a Microbeta counter.

[3] = Stability in Human Whole Blood at 37° C., HPLC; format: in vitro ADME; design: half-life: dose or concentration left out as unconfirmed; conditions: for HPLC AREA: human whole blood 37° C.
Method: The procedures are the same as example 5 with the exceptions that human whole blood was substituted for rat whole blood, and that in Step 2, (blood incubation) aliquotes were taken at the following times: […]

In the case of NCCCC[C@H](N)C(=O)N[C@@H](CC(N)=O)C(=O)N1CCC[C@H]1C(=O)N[C@@H](Cc1ccc(O)cc1)C(=O)O [PEPTIDE #1, H-Lys-Asn-Pro-Tyr-OH] (H-KNPY-OH), the “B cell subset, relative percentage” value ([1]; 50 mg/kg) is reported as 11.60, the “CD4+ CD8+ cell subset, relative percentage” value ([1]; 50 mg/kg) is reported as 1.10 and the “CD4+ CD8- cell subset, relative percentage” value ([1]; 50 mg/kg) is reported as 38.30. For the same compound, the “CD4+ CD11+ cell subset, relative percentage” value ([1]; 50 mg/kg) was 0.17, the “CD4+ CD11- cell subset, relative percentage” value ([1]; 50 mg/kg) was 18.47 and the “CD4+ CD45+ cell subset, relative percentage” value ([1]; 50 mg/kg) was 33.30. The “CD4+ CD45- cell subset, relative percentage” value ([1]; 50 mg/kg) was 6.10, the “CD4- CD8+ cell subset, relative percentage” value ([1]; 50 mg/kg) was 16.15 and the “CD4- CD8- cell subset, relative percentage” value ([1]; 50 mg/kg) was 44.45. The “CD4- CD11+ cell subset, relative percentage” value ([1]; 50 mg/kg) was 1.20, the “CD4- CD11- cell subset, relative percentage” value ([1]; 50 mg/kg) was 80.17 and the “CD4- CD45+ cell subset, relative percentage” value ([1]; 50 mg/kg) was 58.65. The “CD4- CD45- cell subset, relative percentage” value ([1]; 50 mg/kg) was 1.95, the “CD8+ CD45+ cell subset, relative percentage” value ([1]; 50 mg/kg) was 16.90 and the “CD8+ CD45- cell subset, relative percentage” value ([1]; 50 mg/kg) was 0.10. The “CD8- CD45+ cell subset, relative percentage” value ([1]; 50 mg/kg) was 73.15, the “CD8- CD45- cell subset, relative percentage” value ([1]; 50 mg/kg) was 9.85 and the “CD45-8 cell subset, relative percentage” value ([1]; 50 mg/kg) was 60.70. For the same compound, the “CD45- Th1 cell subset, relative percentage” value ([1]; 50 mg/kg) was 39.10, the “NK+ CD3+ cell subset, relative percentage” value ([1]; 50 mg/kg) was 4.70 and the “NK+ CD3- cell subset, relative percentage” value ([1]; 50 mg/kg) was 7.47. The “NK- CD3+ cell subset, relative percentage” value ([1]; 50 mg/kg) was 42.80, the “NK- CD3- cell subset, relative percentage” value ([1]; 50 mg/kg) was 45.10 and the “B cell subset, relative percentage” value ([1]; 100 mg/kg) was 14.97. The “CD4+ CD8+ cell subset, relative percentage” value ([1]; 100 mg/kg) was 2.40, the “CD4+ CD8- cell subset, relative percentage” value ([1]; 100 mg/kg) was 32.30 and the “CD4+ CD11+ cell subset, relative percentage” value ([1]; 100 mg/kg) was 0.20. For the same compound, the “CD4+ CD11- cell subset, relative percentage” value ([1]; 100 mg/kg) was 18.23, the “CD4+ CD45+ cell subset, relative percentage” value ([1]; 100 mg/kg) was 30.90 and the “CD4+ CD45- cell subset, relative percentage” value ([1]; 100 mg/kg) was 3.80. The “CD4- CD8+ cell subset, relative percentage” value ([1]; 100 mg/kg) was 12.45, the “CD4- CD8- cell subset, relative percentage” value ([1]; 100 mg/kg) was 52.85 and the “CD4- CD11+ cell subset, relative percentage” value ([1]; 100 mg/kg) was 1.53. For the same compound, the “CD4- CD11- cell subset, relative percentage” value ([1]; 100 mg/kg) was 80.07, the “CD4- CD45+ cell subset, relative percentage” value ([1]; 100 mg/kg) was 61.45 and the “CD4- CD45- cell subset, relative percentage” value ([1]; 100 mg/kg) was 3.85. The “CD8+ CD45+ cell subset, relative percentage” value ([1]; 100 mg/kg) was 14.25, the “CD8+ CD45- cell subset, relative percentage” value ([1]; 100 mg/kg) was 0.05 and the “CD8- CD45+ cell subset, relative percentage” value ([1]; 100 mg/kg) was 76.35. The “CD8- CD45- cell subset, relative percentage” value ([1]; 100 mg/kg) was 9.35, the “CD45-8 cell subset, relative percentage” value ([1]; 100 mg/kg) was 65.55 and the “CD45- Th1 cell subset, relative percentage” value ([1]; 100 mg/kg) was 34.55. The “NK+ CD3+ cell subset, relative percentage” value ([1]; 100 mg/kg) was 4.40, the “NK+ CD3- cell subset, relative percentage” value ([1]; 100 mg/kg) was 7.93 and the “NK- CD3+ cell subset, relative percentage” value ([1]; 100 mg/kg) was 41.50. For the same compound, the “NK- CD3- cell subset, relative percentage” value ([1]; 100 mg/kg) was 46.20, the “B cell subset, relative percentage” value ([1]; 200 mg/kg) was 16.33 and the “CD4+ CD8+ cell subset, relative percentage” value ([1]; 200 mg/kg) was 2.27. The “CD4+ CD8- cell subset, relative percentage” value ([1]; 200 mg/kg) was 29.50, the “CD4+ CD11+ cell subset, relative percentage” value ([1]; 200 mg/kg) was 0.20 and the “CD4+ CD11- cell subset, relative percentage” value ([1]; 200 mg/kg) was 20.03. For the same compound, the “CD4+ CD45+ cell subset, relative percentage” value ([1]; 200 mg/kg) was 27.98, the “CD4+ CD45- cell subset, relative percentage” value ([1]; 200 mg/kg) was 3.77 and the “CD4- CD8+ cell subset, relative percentage” value ([1]; 200 mg/kg) was 12.49. The “CD4- CD8- cell subset, relative percentage” value ([1]; 200 mg/kg) was 40.94, the “CD4- CD11+ cell subset, relative percentage” value ([1]; 200 mg/kg) was 1.53 and the “CD4- CD11- cell subset, relative percentage” value ([1]; 200 mg/kg) was 78.27. For the same compound, the “CD4- CD45+ cell subset, relative percentage” value ([1]; 200 mg/kg) was 43.44, the “CD4- CD45- cell subset, relative percentage” value ([1]; 200 mg/kg) was 2.31 and the “CD8+ CD45+ cell subset, relative percentage” value ([1]; 200 mg/kg) was 12.36. For the same compound, the “CD8+ CD45- cell subset, relative percentage” value ([1]; 200 mg/kg) was 0.04, the “CD8- CD45+ cell subset, relative percentage” value ([1]; 200 mg/kg) was 62.30 and the “CD8- CD45- cell subset, relative percentage” value ([1]; 200 mg/kg) was 7.32. For the same compound, the “CD45-8 cell subset, relative percentage” value ([1]; 200 mg/kg) was 53.14, the “CD45- Th1 cell subset, relative percentage” value ([1]; 200 mg/kg) was 31.64 and the “NK+ CD3+ cell subset, relative percentage” value ([1]; 200 mg/kg) was 5.27. For the same compound, the “NK+ CD3- cell subset, relative percentage” value ([1]; 200 mg/kg) was 8.07, the “NK- CD3+ cell subset, relative percentage” value ([1]; 200 mg/kg) was 44.33 and the “NK- CD3- cell subset, relative percentage” value ([1]; 200 mg/kg) was 42.33. For the same compound, the “B cell subset, relative percentage” value ([1]; 300 mg/kg) was 14.60, the “CD4+ CD8+ cell subset, relative percentage” value ([1]; 300 mg/kg) was 4.33 and the “CD4+ CD8- cell subset, relative percentage” value ([1]; 300 mg/kg) was 34.30. The “CD4+ CD11+ cell subset, relative percentage” value ([1]; 300 mg/kg) was 0.53, the “CD4+ CD11- cell subset, relative percentage” value ([1]; 300 mg/kg) was 20.53 and the “CD4+ CD45+ cell subset, relative percentage” value ([1]; 300 mg/kg) was 35.00. For the same compound, the “CD4+ CD45- cell subset, relative percentage” value ([1]; 300 mg/kg) was 3.67, the “CD4- CD8+ cell subset, relative percentage” value ([1]; 300 mg/kg) was 16.17 and the “CD4- CD8- cell subset, relative percentage” value ([1]; 300 mg/kg) was 45.20. For the same compound, the “CD4- CD11+ cell subset, relative percentage” value ([1]; 300 mg/kg) was 2.23, the “CD4- CD11- cell subset, relative percentage” value ([1]; 300 mg/kg) was 76.67 and the “CD4- CD45+ cell subset, relative percentage” value ([1]; 300 mg/kg) was 57.40. For the same compound, the “CD4- CD45- cell subset, relative percentage” value ([1]; 300 mg/kg) was 3.97, the “CD8+ CD45+ cell subset, relative percentage” value ([1]; 300 mg/kg) was 19.77 and the “CD8+ CD45- cell subset, relative percentage” value ([1]; 300 mg/kg) was 0.03. The “CD8- CD45+ cell subset, relative percentage” value ([1]; 300 mg/kg) was 69.93, the “CD8- CD45- cell subset, relative percentage” value ([1]; 300 mg/kg) was 10.30 and the “CD45-8 cell subset, relative percentage” value ([1]; 300 mg/kg) was 61.63. For the same compound, the “CD45- Th1 cell subset, relative percentage” value ([1]; 300 mg/kg) was 38.43, the “NK+ CD3+ cell subset, relative percentage” value ([1]; 300 mg/kg) was 9.47 and the “NK+ CD3- cell subset, relative percentage” value ([1]; 300 mg/kg) was 10.83. The “NK- CD3+ cell subset, relative percentage” value ([1]; 300 mg/kg) was 41.10, the “NK- CD3- cell subset, relative percentage” value ([1]; 300 mg/kg) was 38.63 and the “change of relative percentage of CD8+CD45+ (cytotoxic T cells) subset (in words)” value ([1]; 200 and 300 mg/kg) was “significant increase”. The “change of relative percentage of NK+CD3+ (NK cells) subset (in words)” value ([1]; 200 and 300 mg/kg) was “significant increase”, the MLR [2] was 0 and the “HPLC AREA” value ([3]; 0 min) was 887657. The “HPLC AREA” value ([3]; 15 min) was 354842, the “HPLC AREA” value ([3]; 30 min) was 127725 and the “HPLC AREA” value ([3]; 45 min) was 0. For the same compound, the half-life ([3]; human, human whole blood, 37° C.) was roughly 20 min.
